The text below walks through data of patent publication US20230227566A1, “AMHRII-BINDING COMPOUNDS FOR PREVENTING OR TREATING LUNG CANCERS” (GAMAMABS PHARMA, priority 2017, published 2023).

For series [1], the system named is SC131 patient-derived non-small-cell lung xenograft. Description: antitumor efficacy study XTS-1526 in SC131 patient-derived xenograft.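 For all read-outs here: subcutaneous tumor fragments grafted in mice, tumor volume from caliper diameters (length × width²/2) taken three times weekly during treatment, each treated group compared against vehicle controls.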 Particulars: for CR (complete regression), number of mice / TFS (Tumor Free Survivor), number of mice / TS (Tumor Stabilization), number of mice / PR (partial regression), number of mice: 9 mice per group; for antitumor efficacy compared with control group 1 (in words): Mann-Whitney test vs vehicle; for TGDI (Tumor Growth Delay Index): TGD treated/TGD control, same regimens; for TS (Tumor Stabilization), number of mice: constant tumor size during at least 3 consecutive measurements; for Best T/C%: day of best T/C D16 (G6: D11); for T/C % at day 16: mean tumor volume treated/control x100, day 16; for median TGD x 5: time to reach 5x D0 tumor volume, GM102 20 mg/kg IV 2qwk, docetaxel 20 mg/kg slow IV D0, cisplatin 5 + gemcitabine 100 mg/kg IP qwk; for PR (partial regression), number of mice: tumor size lower than initial during at least 3 consecutive measurements.
Description: Fifty-four (54) mice with a subcutaneously growing SC131 tumor (P22.1.3/0) between 62.5 and 220.5 mm^3 were allocated to treatment when the mean and median tumor volume reached 130.76 and 126.00 mm^3 respectively.
Tumors of the same passage were transplanted subcutaneously onto 3-24 mice (donor mice, passage (n−1)). When these tumors reached 700 to 2000 mm^3, donor mice were sacrificed by cervical dislocation, tumors were aseptically excised and dissected. After removing necrotic areas, tumors were cut into fragments measuring approximately 20 mm^3 and transferred in culture medium before grafting.
Eighty-nine (89) mice were anaesthetized with 100 mg/kg ketamine hydrochloride (batch 5D92—exp: 03-2017, Virbac) and 10 mg/kg xylazine (batch KP0AX9X, Bayer), and then skin was aseptized with a chlorhexidine solution, incised at the level of the interscapular region, and a 20 mm^3 tumor fragment was placed in the subcutaneous tissue. Skin was closed with clips.
Treatments were randomly attributed to boxes housing up to 5 mice and were initiated 18 days post implantation of the tumor (60% inclusion rate with staggered inclusion). The study was staggered-included with 5 mice included per group first, then 4 mice included per group 2 days later. The study was terminated following 31 days after the start of treatment.
For the additional groups 7 and 8, tumor size was higher and more heterogeneous. Animals were included 32 days post implantation.
Tumor volume was evaluated by measuring tumor diameters, with a caliper, three times a week during the treatment period. The formula TV (mm^3)=[length (mm)×width (mm)^2]/2 was used, where the length and the width are the longest and the shortest diameters of the tumor, respectively.
For the groups 1 to 6, each group initially included 9 mice. For the groups 7 and 8, each group initially included 8 mice.
Individual tumor growth delays (TGD) was calculated as the time in days required for individual tumors to reach 3- to 5-fold the initial tumor volume.
The tumor growth delay index (TGDI) was calculated as the median growth delay in the treated group divided by the median growth delay in the control group.
The percentage ratio between the mean tumor volume of a treated group (T) and the mean tumor volume of the control group (C) was calculated.
Statistical analysis was done for each measurement by Mann-Whitney non parametric comparison test. Each treated group was compared with control group.
Tumor Stabilization (TS) was defined as the number of mice presenting a constant tumor size during at least 3 consecutive measurements.
Partial tumor Regression (PR) was defined as the number of mice presenting a tumor size lower than initial tumor size during at least 3 consecutive measurements.

Series [2] in a line: tolerability (body weight, clinical observations) in study XTS-1526. Here is the method: Adverse effect of the different treatments was determined as: • Relative Body Weight (RBW) will be calculated for each measurement by dividing the body weight by the body weight at the start of treatment. • Individual Body weight loss percent (% BWL)=100−(BWx/BW0×100), where BWx is the BW at any day during the treatment and BW0 is the BW on the 1st day of treatment.
Mice were observed every day for physical appearance, behavior and clinical changes.
Animals were sacrificed based on the following criteria: • Body weight loss (BWL)≥20% compared to the 1st day of treatment for 48 consecutive hours (3 measurements). • General alteration of behaviour or clinical signs. • Tumor volume ≥2000 mm^3.
Mean Body weight loss percent (% BWL)=100−(mean BWx/mean BW0x 100), where BWx is the mean BW at any day during the treatment and BW0 is the mean BW on the 1st day of treatment.

The next series relates to SC131 tumor model. Description: response of SC131 tumor model to standard-of-care agents. Type of series: in vivo, mouse. Particulars: data obtained on swiss nude mice. From the text: Human tumor samples of various histological origins were obtained with informed consent from patients treated at cancer centers and established as transplantable xenografts in immunodeficient mice. The grafted samples are residual material from primary tumors or metastases obtained before or after treatment. These patient-derived xenograft (PDX) models have been established without prior in vitro culture and have been studied for histology, cytogenetics, genetic and other biological markers, and for their response to standard-of-care (SOC) therapies.
SC131 is low responder to docetaxel and to the combination cisplatin/gemcitabine, and no responder to the other agents tested (data obtained on swiss nude mice).

The target of series [3] is T1, human Anti-Mullerian Hormone type II Receptor (AMHRII) (human, UniProt Q16671 18-573).
T1 construct: also called AMHR2; MISRII
T1 sequence: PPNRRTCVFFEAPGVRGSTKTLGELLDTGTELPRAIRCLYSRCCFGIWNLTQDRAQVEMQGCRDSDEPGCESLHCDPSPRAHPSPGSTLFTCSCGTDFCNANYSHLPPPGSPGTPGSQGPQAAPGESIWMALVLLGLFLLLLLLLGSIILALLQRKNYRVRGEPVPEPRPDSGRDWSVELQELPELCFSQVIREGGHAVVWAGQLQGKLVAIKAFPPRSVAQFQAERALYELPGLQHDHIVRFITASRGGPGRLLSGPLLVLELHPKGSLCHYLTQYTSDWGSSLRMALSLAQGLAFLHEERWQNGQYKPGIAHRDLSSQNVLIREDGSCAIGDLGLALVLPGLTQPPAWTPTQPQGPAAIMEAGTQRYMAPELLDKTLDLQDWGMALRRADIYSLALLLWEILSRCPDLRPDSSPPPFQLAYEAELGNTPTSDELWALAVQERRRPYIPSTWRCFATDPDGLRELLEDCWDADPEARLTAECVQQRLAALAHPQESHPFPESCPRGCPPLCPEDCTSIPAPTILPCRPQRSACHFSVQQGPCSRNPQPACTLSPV
Description: immunohistochemistry (immunoperoxidase, biotinylated antibody) on AMHR2-transfected COV434 cells.

For the next series, the target named is T2, AMHRII (Homo sapiens, UniProt Q16671).
T2 sequence (Q16671 18-573): T1 sequence
Description: binding of 3C23K antibody to AMHRII (Kd).

The subject of series [4] is AMHR2-transfected human tumor cell lines. Particulars: cited from earlier work.
Series [5] has as its system LXFE2226 squamous non-small cell lung cancer model tumor xenografts. Description: antitumor efficacy in LXFE2226 tumor xenografts. Type of series: in vivo, mouse. From the text: Tumor fragments were obtained from xenografts in serial passage in nude mice. After removal from donor mice, tumors were cut into fragments (3-4 mm edge length) and placed in PBS containing 10% penicillin/streptomycin. Recipient animals were anesthetized by inhalation of isoflurane and received unilateral or bilateral tumor implants subcutaneously in the flank.
LXFE2226 squamous non-small cell lung cancer model tumor xenografts were implanted subcutaneously with one tumor per mouse (NMRI-Foxn1^nu from Charles River). The experiment consisted of two groups of mice from which three of them were euthanized on day 15 for detecting membranous AMHRII expression by flow cytometry. The first group was a vehicle control group and the second group received the investigational antibody GM102, which was administered intraperitoneally (i.p.) twice weekly at a dose level of 20 mg/kg.
Antitumor efficacy was evaluated as minimum T/C value by comparison of group median relative tumor volumes (RTVs) on the days where the optimal efficacy was reached. The experiment was terminated on day 43 after a two-week dosing-free observation period.

Regarding `CC(=O)O[C@@]12CO[C@@H]1C[C@H](O)[C@@]1(C)C(=O)[C@H](O)C3=C(C)[C@@H](OC(=O)[C@H](O)[C@@H](NC(=O)OC(C)(C)C)c4ccccc4)C[C@@](O)([C@@H](OC(=O)c4ccccc4)[C@H]21)C3(C)C` [Docetaxel], in series [1], the “CR (complete regression), number of mice” value stood at 0; the “TFS (Tumor Free Survivor), number of mice” value came out at 0; the “antitumor efficacy compared with control group 1 (in words)” value is “strong and statistically significant”; the “TGDI (Tumor Growth Delay Index)” value is reported as greater than 2.71. In addition, in series [1], the “TS (Tumor Stabilization), number of mice” value stood at 7; the “Best T/C%” value is given as 11.00%; the “T/C % at day 16” value amounted to 11.00%; the “median TGD x 5” value is greater than 28 days. Also, the “PR (partial regression), number of mice” value in series [1] is reported as 2. Besides, in series [1] (listed as docetaxel), the “TGDI (Tumor Growth Delay Index)” value is on record as greater than 2.71; the “TS (Tumor Stabilization), number of mice” value is recorded as 7/9; the “Best T/C%” value was determined as 11.00%; the “PR (partial regression), number of mice” value was 2/9. In series [1] (day 4), the “Mann-Whitney analysis on tumor volume vs vehicle, day 4” value is listed as “** (P < 0.01)”. In addition, the “Mann-Whitney analysis on tumor volume vs vehicle, day 7” value in series [1] (day 7) is “*** (P < 0.001)”. The “Mann-Whitney analysis on tumor volume vs vehicle, day 9” value in series [1] (day 9) is “*** (P < 0.001)”. For the same molecule, in series [1] (day 11), the “Mann-Whitney analysis on tumor volume vs vehicle, day 11” value was “*** (P < 0.001)”. Further, in series [1] (day 14), the “Mann-Whitney analysis on tumor volume vs vehicle, day 14” value is given as “*** (P < 0.001)”. The “Mann-Whitney analysis on tumor volume vs vehicle, day 16” value in series [1] (day 16) is “*** (P < 0.001)”. For the same molecule, in series [2] (despite DietGel, 9 mice per group (groups 7, 8: 8)), the “mice that had to be sacrificed before the end of the study” value was determined as 4. Also, in series [2] (mouse, in vivo), the “maximum individual body weight loss” value came to 23.8% and the “maximum mean body weight loss” value was 17.0%. Further, in the series with SC131 tumor model, the “response of SC131 to the agent (in words)” value is recorded as “low responder”.

B1: 3C23K anti-AMHRII monoclonal antibody (antibody, human IgG1, kappa, V domains shown)
VH: QVRLVQSGAEVKKPGASVKVSCKASGYTFTSYHIHWVRQAPGQRLEWMGWIYPGDDSTKYSQKFQGRVTITRDTSASTAYMELSSLRSEDTAVYYCTRGDRFAYWGQGTLVTVSS
VL: DIQMTQSPSTLSASVGDRVTITCRASSSVRYIAWYQQKPGKAPKLLTYPTSSLKSGVPSRFSGSGSGTEFTLTISSLQPDDFATYYCLQWSSYPWTFGGGTKVEIKR
notes: Humanized mAb; GM102 is described as a low fucose form; also called GM102; 3C23K-AF
As to B1, the binding result in series [3] is listed as “binds”.

B2: GM102: humanized anti-AMHRII (AMHR2) monoclonal antibody, low fucose; VH SEQ ID NO 19, VL SEQ ID NO 36 (antibody, V domains shown)
VH: B1 VH
VL: DIQMTQSPSTLSASVGDRVTITCRASSSVRYIAWYQQKPGKAPKLLTYPTSSLKSGVPSRFSGSGSGTEFTLTISSLQPDDFATYYCLQWSSYPWTFGGGTKVEIK
modifications: low fucose; Synthetic 3C23K/3C23; Synthetic 3C23K
B2: the dissociation constant (Kd) with AMHRII worked out at 0.0553 nM. Moreover, the “efficacy in combination with carboplatin and paclitaxel (in words)” value in series [4] (Jacquet A., Cancer Res, 2012) is “synergistic”. For the same molecule, the “antitumor efficacy (in words)” value in series [4] (mouse, in vivo) was “display antitumor efficacy”. The “tumor volume at Day 28 vs vehicle (in words)” value in series [5] (Day 28, p<0.001) is “drastically reduction of the tumor volume”. For the same molecule, the “anti-tumor activity (in words)” value in series [5] (GM102 20 mg/kg i.p. twice weekly, NMRI-Foxn1nu mice) is “strong anti-tumor activity”. Also, in series [1], the “CR (complete regression), number of mice” value stood at 0; the “TFS (Tumor Free Survivor), number of mice” value came out at 0; the “antitumor efficacy compared with control group 1 (in words)” value is on record as “did not demonstrate any antitumor efficacy”; the “TGDI (Tumor Growth Delay Index)” value came out at 1.33. In series [1], the “TS (Tumor Stabilization), number of mice” value is given as 0; the “Best T/C%” value came out at 74.68%; the “T/C % at day 16” value was 74.68%; the “median TGD x 5” value is on record as 13.70 days. Further, the “PR (partial regression), number of mice” value in series [1] is 0. Besides, in series [1] (GM102 alone, did not reach statistical significance), the tumor growth inhibition was 25%. Moreover, in series [2] (9 mice per group (groups 7, 8: 8)), the mice found dead entry is on record as “Mouse #27 was found dead on day 27”. The “maximum mean body weight loss” value in series [2] (SC131-bearing nude mice (cachectic tumor), day of maximum differs per group) is 9.8%. Moreover, in series [2] (SC131-bearing nude mice, day of maximum differs per group), the “maximum individual body weight loss” value came out at 16.8%. Besides, the “tolerability (in words)” value in series [2] (mouse, in vivo, iv, 20 mg/kg) was “well tolerated”.

The Kd is a measure of binding affinity in units of concentration. A higher Kd goes with weaker binding.
